Literature values in patent US9034614B2, “Method of preparing alkyl butyrate from fermented liquid using microorganisms” (priority 2010, dated 2015).
In brackets after ≈: the same amount, converted by molar mass. Like-named read-outs stand apart in the source and are kept apart here.

| Solubility in water (stated in words) | Solubility in water | SMILES |
| --- | --- | --- |
| Insoluble |  | CCCCOC(=O)CCC [Butyl butyrate] |
|  | 4900 µg/mL (≈ 42.2 mM) | CCCC(=O)OCC [Ethyl butyrate] |
| Miscible |  | CCO [Ethanol, reference compound] |
